Experimental data from patent US4414224A (SmithKline Beckman Corporation, priority 1982, dated 1983).

Experiments:
normal anesthetized dog = assay: Intravenous infusion in the normal anesthetized dog (MAP, RBF, RVR, HR); format: in vivo; settings: i.v. infusion
alpha1 = assay: Isolated perfused rabbit ear artery preparation, vasoconstriction indicative of alpha1 activity; format: cell-based
Excerpt: The isolated perfused rabbit ear artery preparation described by J. P. Hiebel and R. G. Pendleton, Arch.

[1] = 3 μg/kg/min (base), dopamine run in each test for comparison
[2] = 0.3 μg/kg/min (base), A in 10% dimethylsulfoxide in 0.9% saline

Compound	% Change HR (heart rate) (normal anesthetized dog; [1]) [%]	% Change MAP (mean arterial blood pressure) (normal anesthetized dog; [1]) [%]	% Change RBF (mean renal blood flow) (normal anesthetized dog; [1])	% Change RVR (renal vascular resistance) (normal anesthetized dog; [1])	% Change HR (heart rate) (normal anesthetized dog; 30 μg/kg/min (base)) [%]	% Change MAP (mean arterial blood pressure) (normal anesthetized dog; 30 μg/kg/min (base))	% Change RBF (mean renal blood flow) (normal anesthetized dog; 30 μg/kg/min (base))	% Change RVR (renal vascular resistance) (normal anesthetized dog; 30 μg/kg/min (base))	% Change HR (heart rate) (normal anesthetized dog; 300 μg/kg/min (base)) [%]	% Change MAP (mean arterial blood pressure) (normal anesthetized dog; 300 μg/kg/min (base))	% Change RBF (mean renal blood flow) (normal anesthetized dog; 300 μg/kg/min (base))	% Change RVR (renal vascular resistance) (normal anesthetized dog; 300 μg/kg/min (base))	concentration at which vasoconstriction indicative of alpha1 activity was observed (alpha1)	% Change HR (heart rate) (normal anesthetized dog; [2])	% Change MAP (mean arterial blood pressure) (normal anesthetized dog; [2]) [%]	% Change RBF (mean renal blood flow) (normal anesthetized dog; [2])	% Change RVR (renal vascular resistance) (normal anesthetized dog; [2]) [%]
CCCN(CCC)CCc1ccc(OC)c2c1CC(=O)N2.Cl [B, 4-(2-di-n-propylaminoethyl)-7-methoxy-2(3H)-indolone hydrochloride]	-4.5	-3.6	-11.6%	+8.9%	-8.3	-7.8%	+2.8%	-9.5%	-7.8	+0.1%	+0.7%	+1.6%	–	–	–	–	–
Br.NCCc1ccc(O)c2c1CC(=O)N2 [C, 4-(2-aminoethyl)-7-hydroxy-2(3H)-indolone hydrobromide]	-2.9	-10.6	-12.7%	+4.1%	-2.9	-16.1%	-12.3%	-2.7%	-15.8	+62.6%	-32.7%	+167.0%	–	–	–	–	–
CCCN(CCC)CCc1ccc(O)c2c1CC(=O)N2 [4-(2-di-n-propylaminoethyl)-7-hydroxy-2(3H)-indolone]	–	–	–	–	–	–	–	–	–	–	–	–	about 1000 nM	–	–	–	–
Br.CCCN(CCC)CCc1ccc(O)c2c1CC(=O)N2 [A, 4-(2-di-n-propylaminoethyl)-7-hydroxy-2(3H)-indolone hydrobromide]	-11.2	-24.7	+24.7%	-39.1%	-6.9	+28.4%	-19.4%	+59.2%	–	–	–	–	–	+3.6%	-5.1	+4.6%	-0.5
COc1ccc(CCN)c2c1NC(=O)C2.Cl [D, 4-(2-aminoethyl)-7-methoxy-2(3H)-indolone hydrochloride]	-1.5	-0.7	+6.7%	-7.0%	-2.8	-2.3%	+7.5%	-9.2%	-1.6	-9.8%	+2.1%	-9.4%	–	–	–	–	–
